Measured values reported in patent US11046713B2, “Androgen receptor modulating compounds” (ORION CORPORATION, priority 2009, dated 2021).

system: VCaP prostate cancer cell line; experiment: Inhibition of mibolerone-induced VCaP cell proliferation (WST-1); type: cell-based; settings: Homo sapiens, VCaP, mibolerone-induced (usually 0.1 nM), 4-5 days
Method: The IC50 value of the test compound for inhibition of mibolerone-induced VCaP cell proliferation was measured.
Cell Proliferation Assays
The ability of test compounds to inhibit prostate cancer cell growth was studied by measuring inhibition of cell proliferation using androgen-sensitive VCaP prostate cancer cell line. […] Cell proliferation was measured using WST-1 Cell Proliferation Assay (Roche).

| SMILES | IC50 |
| --- | --- |
| O=C(NCCc1ccc(-c2ccc(Cl)c(Cl)c2)o1)c1cc(C(=O)N2CCOCC2)n[nH]1 [Example 8, N-(2-(5-(3,4-dichlorophenyl)furan-2-yl)ethyl)-3-(morpholine-4-carbonyl)-1H-pyrazole-5-carboxamide] | 1600 nM |
| Cc1cc(-c2ccn(C[C@H](C)NC(=O)c3cc(-c4ccco4)n[nH]3)n2)ccc1C#N [Example 32, (S)—N-(1-(3-(4-cyano-3-methylphenyl)-1H-pyrazol-1-yl)propan-2-yl)-3-(furan-2-yl)-1H-pyrazole-5-carboxamide] | 560 nM |
| N#Cc1ccc(-c2ccn(CCNC(=O)c3cc(-c4cccnc4)n[nH]3)n2)cc1C#N [Example 52, N-(2-(3-(3,4-dicyanophenyl)-1H-pyrazol-1-yl)ethyl)-3-(pyridin-3-yl)-1H-pyrazole-5-carboxamide] | 450 nM |
| Cc1cc(-c2ccn(CCNC(=O)c3cc(-c4cccnc4)n[nH]3)n2)ccc1C#N [Example 53, N-(2-(3-(4-cyano-3-methylphenyl)-1H-pyrazol-1-yl)ethyl)-3-(pyridin-3-yl)-1H-pyrazole-5-carboxamide] | 500 nM |
| CCc1noc(C(=O)N[C@@H](C)Cn2ccc(-c3ccc(C#N)c(Cl)c3)n2)n1 [Example 91, (S)—N-(1-(3-(3-chloro-4-cyanophenyl)-1H-pyrazol-1-yl)propan-2-yl)-3-ethyl-1,2,4-oxadiazole-5-carboxamide] | 330 nM |
| Cc1nc(-c2cc(C(=O)N[C@@H](C)Cn3ccc(-c4ccc(C#N)c(Cl)c4)n3)n[nH]2)cs1 [Example 94, (S)—N-(1-(3-(3-chloro-4-cyanophenyl)-1H-pyrazol-1-yl)propan-2-yl)-5-(2-methylthiazol-4-yl)-1H-pyrazole-3-carboxamide] | 790 nM |
| Cc1noc(C(=O)N[C@@H](C)Cn2ccc(-c3ccc(C#N)c(Cl)c3)n2)n1 [Example 103, (S)—N-(1-(3-(3-chloro-4-cyanophenyl)-1H-pyrazol-1-yl)propan-2-yl)-3-methyl-1,2,4-oxadiazole-5-carboxamide] | 230 nM |
| CC(O)c1cc(C(=O)N[C@@H](C)Cn2ccc(-c3ccc(C#N)c(Cl)c3)n2)no1 (stereo partly drawn) [Example 124, N—((S)-1-(3-(3-chloro-4-cyanophenyl)-1H-pyrazol-1-yl)propan-2-yl)-5-(1-hydroxyethyl)isoxazole-3-carboxamide] | 430 nM |
| C[C@H](Cn1ccc(-c2ccc(C#N)c(Cl)c2)n1)NC(=O)c1csc(N2CCOCC2)n1 [Example 132, (R)—N-(1-(3-(3-chloro-4-cyanophenyl)-1H-pyrazol-1-yl)propan-2-yl)-2-morpholinothiazole-4-carboxamide] | 210 nM |
| Cc1c(-c2ccn(C[C@H](C)NC(=O)c3csc(C(C)O)n3)n2)ccc(C#N)c1Cl (stereo partly drawn) [Example 186, N—((S)-1-(3-(3-chloro-4-cyano-2-methylphenyl)-1H-pyrazol-1-yl)propan-2-yl)-2-(1-hydroxyethyl)thiazole-4-carboxamide] | 310 nM |
| C[C@@H](Cn1ccc(-c2ccc(C#N)c(Cl)c2)n1)NC(=O)c1csc(-c2cn[nH]c2)n1 [Example 206, (S)—N-(1-(3-(3-chloro-4-cyanophenyl)-1H-pyrazol-1-yl)propan-2-yl)-2-(1H-pyrazol-4-yl)thiazole-4-carboxamide] | 490 nM |
| C[C@H](CNC(=O)c1csc(CC#N)n1)n1ccc(-c2cc(F)c(C#N)c(F)c2)n1 [Example 222, (R)—N-(2-(3-(4-cyano-3,5-difluorophenyl)-1H-pyrazol-1-yl)propyl)-2-(cyanomethyl)thiazole-4-carboxamide] | 250 nM |
| Cc1nc(C(=O)N[C@@H](C)Cn2ccc(-c3cc(F)c(C#N)c(Cl)c3)n2)c[nH]1 [Example 249, (S)—N-{1-[3-(3-Chloro-4-cyano-5-fluorophenyl)-1H-pyrazol-1-yl]propan-2-yl}-2-methyl-1H-imidazole-4-carboxamide] | 320 nM |
| C[C@@H](Cn1ccc(-c2cc(F)c(C#N)c(Cl)c2)n1)NC(=O)c1cn2cccnc2n1 [Example 324, (S)—N-(1-(3-(3-chloro-4-cyano-5-fluorophenyl)-1H-pyrazol-1-yl)propan-2-yl)imidazo [1,2-a]pyrimidine-2-carboxamide] | 1000 nM |
| C[C@@H](Cn1ccc(-c2ccc(C#N)c(Cl)c2)n1)NC(=O)c1[nH]nc2c1COCC2 [Example 338, (S)—N-(1-(3-(3-chloro-4-cyanophenyl)-1H-pyrazol-1-yl)propan-2-yl)-2,4,6,7-tetrahydropyrano [4,3-c]pyrazole-3-carboxamide] | 340 nM |

same assay, conditions: mibolerone-induced (usually 0.1 nM), 4-5 days

| SMILES | IC50 |
| --- | --- |
| Cc1nc(C(=O)N[C@@H](C)Cn2ccc(-c3ccc(C#N)c(Cl)c3)n2)c[nH]1 [Example 248, (S)—N-{1-[3-(3-Chloro-4-cyanophenyl)-1H-pyrazol-1-yl]propan-2-yl}-2-methyl-H-imidazole-4-carboxamide] | 490 nM |
